Measured values taken from publication PMC4092069, “Structural and Functional Characterization of DUF1471 Domains of Salmonella Proteins SrfN, YdgH/SssB, and YahO” (PLoS ONE, 2014).
Where a name gives a salt, the structure may show the parent alone.

How the values were obtained:
SrfN [1] = target: T1, SrfN (Salmonella enterica, UniProt Q7CR88); assay: 2-D 1H-15N HSQC NMR titration, chemical shift perturbation; assay type: binding; details: 0.5 mM SrfN monomer, oxyanion site, weak
T1 construct: gene STM0082; full-length synthetic gene in pGS-21a, C-terminal 6xHis tag kept, signal peptide (1-21) cleaved in E. coli, mature residues 22-96; 15N or 13C,15N labelled

SrfN [2] = target: T1, SrfN; assay: as above; assay type: binding
SEC-MALS = target: the molecule itself; assay: SEC-MALS

Molecule: O=C(O)C1=C[C@H](O)[C@@H](OS(=O)(=O)O)[C@H](O[C@H]2[C@H](O)[C@@H](NS(=O)(=O)O)C(O)O[C@@H]2COS(=O)(=O)O)O1 (stereo partly drawn) [heparin disaccharide, α-ΔUA-2S-[1→4]-GlcNS-6S]
- 2-D 1H-15N HSQC NMR titration, chemical shift perturbation (SrfN [1]; 5 mM disaccharide (20:1 to dimer)): The interaction with heparin disaccharide appears to be somewhat weaker

Molecule: O=S(=O)(O)O [sodium sulfate]
- 2-D 1H-15N HSQC NMR titration, chemical shift perturbation (SrfN [1]; neutral pH, 100-200 mM Na2SO4 (400-800:1 to dimer)): a region on the surface which interacts only weakly with sulfate ion at neutral pH

Molecule: O=S(=O)(O)OC[C@H]1O[C@@](COS(=O)(=O)O)(O[C@H]2O[C@H](COS(=O)(=O)O)[C@@H](OS(=O)(=O)O)[C@H](OS(=O)(=O)O)[C@H]2OS(=O)(=O)O)[C@@H](OS(=O)(=O)O)[C@@H]1OS(=O)(=O)O [sucrose octasulfate]
- Kd (SrfN [2]): < 500 µM

B1: SrfN (STM0082) of Salmonella enterica serovar Typhimurium LT2, processed form lacking the 21 N-termi (natural protein)
chain: AEQVSKQEISHFKLVKVGTINVSQSGGQISSPSDLREKLSELADAKGGKYYHIIAAREHGPNFEAVAEVYNDATK
modifications: uniform 15N or 13C,15N isotope labelling in the NMR samples
notes: also called StR109; SrfN dimer
- stoichiometry N (SEC-MALS): 2
